Assay results reported in US4232035A, “Carbamate pesticidal compounds compositions and methods of use” (priority 1975, dated 1980).

Legend:
[1] = test system: southern armyworm (Prodenia eridania, (Cram.)); test: Southern Armyworm Leaf Spray Test; assay type: in vivo; set-up: key: A: excellent control; B: partial control; C: no control; conditions: 500 parts per million leaf spray; three days
Procedure: (§1) Suspensions of the test compounds were prepared by dissolving one gram of compound in 50 milliliters of acetone in which had been dissolved 0.1 gram (10 percent of the weight of compound) of an alkylphenoxy polyethoxyethanol surfactant, as an emulsifying or dispersing agent. The resulting solution was mixed into 150 milliliters of water to give roughly 200 milliliters of a suspension containing the compound in finely divided form. The thus-prepared stock suspension contained 0.5 percent by weight of compound. The test concentrations in parts per million by weight employed in the tests described hereinbelow were obtained by appropriate dilutions of the stock suspension with water. The test procedures were as follows:
Larvae of the southern armyworm (Prodenia eridania, (Cram.)), reared on Tendergreen bean plants at a temperature of 80°±5° F. and a relative humidity of 50±5 percent, constituted the test insects.
The test compounds were formulated by diluting the stock suspension with water to give a suspension containing 500 parts of test compound per million parts of final formulation. Potted Tendergreen bean plants of standard height and age were placed on a revolving turntable and sprayed with 100-110 milliliters of test compound formulation by use of a DeVilbiss spray gun set at 10 psig air pressure. This application, which lasted 25 seconds, was sufficient to wet plants to run-off. As a control, 100-110 milliliters of a water-acetone-emulsifier solution containing no test compound were also sprayed on infested plants. When dry, the paired leaves were separated and each one was placed in a 9 centimeter Petri dish lined with moistened filter paper. Five randomly selected larvae were introduced into each dish and the dishes were closed. The closed dishes were labeled and held at 80°-85° F. for three days. Although the larvae could easily consume the whole leaf within twenty-four hours, no more food was added. Larvae which were unable to move the length of the body, even upon stimulation by prodding, were considered dead. Percent mortality was recorded for various concentration levels.

[2] = test system: two-spotted mite (Tetranychus urticae Koch); test: Mite Foliage Spray Test; assay type: in vivo; set-up: key: A: excellent control; B: partial control; C: no control; conditions: 500 parts per million foliage spray; six days
Procedure: as §1
Adults and nymphal stages of the two-spotted mite (Tetranychus urticae Koch), reared on Tendergreen bean plants at 80±5 percent relative humidity, were the test organisms. Infested leaves from a stock culture were placed on the primary leaves of two bean plants six to eight inches in height, growing in a two-and-a-half inch clay pot. 150-200 Mites, a sufficient number for testing, transferred from the excised leaves to the fresh plants in a period of twenty four hours. Following the twenty four hour transfer period, the excised leaves were removed from the infested plants. The test compounds were formulated by diluting the stock suspension with water to give a suspension containing 500 parts of test compound per million parts of final formulation. The potted plants (one pot per compound) were placed on a revolving turntable and sprayed with 100-110 milliliters of test compound formulation by use of a DeVilbiss spray gun set at 40 psig. air pressure. This application, which lasted 25 seconds, was sufficient to wet the plants to run-off. As a control, 100-110 milliliters of a water solution containing acetone and emulsifier in the same concentrations as the test compound formulation, but containing no test compound, were also sprayed on infested plants. The sprayed plants were held at 80±5 percent relative humidity for six days, after which a mortality count of motile forms was made. Microscopic examination for motile forms was made on the leaves of the test plants. Any individual which was capable of locomotion upon prodding was considered living.

SMILES	S. Armyworm, pesticidal activity rating [1]	Mite, pesticidal activity rating [2]
CN(SSC(C)(C)C)C(=O)ON=C1SCCS1	A	C
CN(SSC(C)(C)C)C(=O)ON=C1SC(C)(C)C(=O)N1C	A	C
